Data reported in patent US9365563B2, “TRPV1 antagonists including dihydroxy substituent and uses thereof” (Purdue Pharma L.P., priority 2007, dated 2016).
Where two headings read alike, the source gives them in different places. One block for each compound: values may come before it.

Legend:
Aqueous solubility = type: physicochemical
human TRPV1 [1] = molecular target: T1, human TRPV1 (Homo sapiens (Human), UniProt Q8NER1); test: pH-based assay, Protocol 2 (hpH-CHO); type: cell-based; settings: TRPV1/CHO cells, pH 5.0-5.1; mean ± SEM; read-out: TRPV1 IC50 Potency Human pH CHO (hpH-CHO)
Text: For Protocol 2, a Chinese Hamster Ovary cell line (CHO) that has been engineered to constitutively express human recombinant TRPV1 was used (TRPV1/CHO cells). The TRPV1/CHO cell line was generated as described below.
The resulting PCR products were purified from agarose gels using Gel Band Purification Kit (GE Healthcare Bioscience) and were subcloned into pCR-Blunt vector (Invitrogen). The cloned cDNA was fully sequenced using a fluorescent dye-terminator reagent (BigDye Terminator ver3.1 Cycle Sequencing Kit, Applied Biosystems) and ABI Prism 3100 genetic analyzer (Applied Biosystems). The pCR-Blunt vector containing the hTRPV1 cDNA was subjected to restriction digestion with EcoR1. […] The sequence of the cDNA encoding TRPV1 is available at GenBank accession number AJ277028.
CHO-K1 cells were maintained in growth medium consisting of α-MEM, 10% FBS (Hyclone), and 100 IU/mL of penicillin-100 μg/mL of streptomycin mixed solution (Nacalai Tesque, Japan) at 37° C. in an environment of humidified 95% air and 5% CO2. […] 24 hr after transfection, neomycin-resistant cells were selected using 1 mg/mL G418 (Nacalai Tesque). […]
(5) The Fura-2 fluorescent intensity was monitored at a wavelength of 340 nm and at 380 nm, respectively, at a rate of 0.5 Hz for a total of 240 seconds.

human TRPV1 [2] = molecular target: T1, human TRPV1; test: Capsaicin-based assay, Protocol 2 (hCAP-CHO); type: cell-based; settings: TRPV1/CHO cells, 100 nM capsaicin; mean ± SEM; read-out: TRPV1 IC50 Potency Human Capsaicin CHO (hCAP-CHO)
Text: The TRPV1/CHO cell line was generated as described below. […] The resulting PCR products were purified from agarose gels using Gel Band Purification Kit (GE Healthcare Bioscience) and were subcloned into pCR-Blunt vector (Invitrogen). The cloned cDNA was fully sequenced using a fluorescent dye-terminator reagent (BigDye Terminator ver3.1 Cycle Sequencing Kit, Applied Biosystems) and ABI Prism 3100 genetic analyzer (Applied Biosystems). The pCR-Blunt vector containing the hTRPV1 cDNA was subjected to restriction digestion with EcoR1. The restriction fragment was subcloned into expression vector pcDNA3.1(-) (Invitrogen) and named pcDNA3.1(-)-hVR1 plasmid. The sequence of the cDNA encoding TRPV1 is available at GenBank accession number AJ277028. […] The cells were transfected with the pcDNA3.1(-)-hVR1 plasmid using FuGENE6 (Roche) according to the manufacturer's protocol. 24 hr after transfection, neomycin-resistant cells were selected using 1 mg/mL G418 (Nacalai Tesque). […] The cells expressing hTRPV1 were cultured in the growth medium supplemented with 1 mg/mL G418. […] Subsequently, the cells were loaded by incubation in 0.1 mL of wash buffer containing Fluo-4 at 3 μM final concentration. After 1 hour, the cells were washed twice with 0.2 mL wash buffer and resuspended in 0.1 mL wash buffer. The plates were then transferred to a Fluorescence Imaging Plate Reader (Molecular Devices). Fluorescence intensity was monitored for 15 seconds to establish a baseline. […] The final concentration of the compound was adjusted to range from 100 μM to 1.5625 μM. […] Data were collected over the entire time course and analyzed using Excel and the curve-fitting formula GraphPad Prism.

[3] = Bioavailability following oral administration; type: in vivo
[4] = Plasma concentration after administration to an animal; type: in vivo
[5] = system: FCA-induced inflammation of the rat hind paw; test: FCA model of inflammatory pain (thermal hyperalgesia, plantar test); type: in vivo; settings: for ED50: read-out: ED50 for reversal of FCA-induced thermal hyperalgesia
Description: Each experiment uses rats weighing between 200-260 g at the start of the experiment. The rats are group-housed and have free access to food and water at all times, except prior to oral administration of a compound of formula I when food is removed for 16 hours before dosing. A control group acts as a comparison to rats treated with a compound of formula I. The control group is administered the carrier for the compound of formula I. The volume of carrier administered to the control group is the same as the volume of carrier and compound of formula I administered to the test group.
To assess the actions of the compounds of formula I on the treatment or prevention of inflammatory pain the Freund's complete adjuvant (“FCA”) model of inflammatory pain is used. FCA-induced inflammation of the rat hind paw is associated with the development of persistent inflammatory mechanical and thermal hyperalgesia and provides reliable prediction of the anti-hyperalgesic action of clinically useful analgesic drugs (L. Bartho et al., “Involvement of Capsaicin-sensitive Neurones in Hyperalgesia and Enhanced Opioid Antinociception in Inflammation,” Naunyn-Schmiedeberg's Archives of Pharmacol. 342:666-670 (1990)). The left hind paw of each animal is administered a 50 μL intraplantar injection of 50% FCA. 24 hour post injection, the animal is assessed for response to noxious mechanical stimuli by determining the PWT, or to noxious thermal stimuli by determining the PWL, as described below. […] Responses to noxious mechanical or thermal stimuli are then determined 1, 3, 5 and 24 hours post administration. […]
The plantar test can be used to assess thermal hyperalgesia. For this test, hind paw withdrawal latencies (PWL) to a noxious thermal stimulus are determined using a plantar test apparatus (commercially available from Ugo Basile of Italy) following the technique described by K. Hargreaves et al., “A New and Sensitive Method for Measuring Thermal Nociception in Cutaneous Hyperalgesia,” Pain 32(1):77-88 (1988). […] Three latencies are determined at each time point and averaged. […]

T1 sequence (Q8NER1 whole entry): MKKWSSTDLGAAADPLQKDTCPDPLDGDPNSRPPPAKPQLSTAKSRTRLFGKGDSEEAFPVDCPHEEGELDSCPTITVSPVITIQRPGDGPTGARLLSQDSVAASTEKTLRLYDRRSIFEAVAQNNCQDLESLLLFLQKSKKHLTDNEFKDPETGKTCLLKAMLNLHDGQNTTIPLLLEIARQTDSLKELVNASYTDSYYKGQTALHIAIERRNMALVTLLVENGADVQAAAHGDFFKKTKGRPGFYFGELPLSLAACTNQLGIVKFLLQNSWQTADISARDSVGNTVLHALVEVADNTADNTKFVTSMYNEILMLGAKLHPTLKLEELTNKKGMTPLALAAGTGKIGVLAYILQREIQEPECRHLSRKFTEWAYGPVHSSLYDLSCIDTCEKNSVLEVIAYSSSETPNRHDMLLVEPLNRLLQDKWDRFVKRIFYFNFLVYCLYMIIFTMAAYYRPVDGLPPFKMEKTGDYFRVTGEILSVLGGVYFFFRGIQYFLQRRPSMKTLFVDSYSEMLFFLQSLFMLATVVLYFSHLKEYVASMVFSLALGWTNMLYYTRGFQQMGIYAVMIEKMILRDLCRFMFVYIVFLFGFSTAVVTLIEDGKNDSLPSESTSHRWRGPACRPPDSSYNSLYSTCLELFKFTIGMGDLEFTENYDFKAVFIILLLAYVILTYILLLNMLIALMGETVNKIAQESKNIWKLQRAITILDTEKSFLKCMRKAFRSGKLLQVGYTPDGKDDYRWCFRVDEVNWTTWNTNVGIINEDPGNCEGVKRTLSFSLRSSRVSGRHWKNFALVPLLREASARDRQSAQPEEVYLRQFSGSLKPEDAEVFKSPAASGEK

Compound: O=C(Nc1ccc(OC(F)(F)F)c(Cl)c1)N1CC=C(c2ncc([C@H](O)CO)cc2Cl)CC1 [Compound Y1, (S)-3-Chloro-5-(1,2-dihydroxy-ethyl)-3′,6′-dihydro-2′H-[2,4]bipyridinyl-1′-carboxylic acid (3-chloro-4-trifluoromethoxy-phenyl)amide]
IC50 (human TRPV1 [1]): 13.5 ± 1.2 nM
IC50 (human TRPV1 [2]): 74.7 ± 18.4 nM

Compound: O=C(Nc1ccc(C(F)(F)F)c(Cl)c1)N1CC=C(c2ncc([C@H](O)CO)cc2Cl)CC1 [Compound D2, (S)-3-Chloro-5-(1,2-dihydroxy-ethyl)-3′,6′-dihydro-2′H-[2,4]bipyridinyl-1′-carboxylic acid (3-chloro-4-trifluoromethyl-phenyl)amide]
ED50 ([5]; 3 hours after administration): 0.95 mg/kg
maximum % reversal of FCA-induced thermal hyperalgesia ([5]; 5 hours after administration): 78.7%
ED50 ([5]; 5 hours after administration): 1.63 mg/kg

Further lines, results first:

aqueous solubility at pH 1.2 (Aqueous solubility; pH 1.2): 27.2 μM
aqueous solubility at pH 6.8 (Aqueous solubility; pH 6.8): 9.0 μM
IC50 (human TRPV1 [1]): 164 nM
Compound: N#CCc1cnc(C2=CCN(C(=O)Nc3ccc(C(F)(F)F)cc3)CC2)c(Cl)c1 [Compound E6, 4-(3-chloro-5-(cyanomethyl)pyridin-2-yl)-N-(4-(trifluoromethyl)phenyl)-5,6-dihydropyridine-1(2H)-carboxamide]

bioavailability ([3]; in vivo, read-out: bioavailable following oral administration): 70.7%
Compound: O=C(Nc1ccc(C(F)(F)F)cn1)N1CCC(F)(c2ncc([C@H](O)CO)cc2Cl)CC1 [Compound G1]

time to maximum plasma concentration after administration ([4]; animal plasma): 1.85 h
maximum plasma concentration relative to the maximum for compound 200 ([4]; animal plasma, for a given dose): 5.3 times
plasma concentration up to 24 h compared with compound 200 ([4]; up to 24 h): consistently greater
bioavailable following oral administration [3]: 68.9%
Compound: CC(O)(CO)c1cnc(C2=CCN(C(=O)Nc3ccc(C(F)(F)F)cc3)CC2)c(Cl)c1 (stereo not shown) [Compound R6]
